From patent US20150148393A1, “COSMETIC AND/OR PHARMACEUTICAL COMPOSITION FOR THE TREATMENT OF SKIN INFLAMMATION AND RELATED SYNDROMES” (GENERAL TOPICS S.R.L., priority 2012, published 2015)

System: TNF alpha release from human keratinocytes
Assay: Inhibition of SLS-induced TNF alpha release from human keratinocytes
Assay type: cell-based
Settings: release induced by sodium lauryl sulphate (SLS), after a 24 hour-period
From the text: A comparison was made between the inhibition of TNF alpha release from human keratinocytes as induced by contact with sodium lauryl sulphate (SLS) and obtained with the use of methyl sulfonyl methane (MSM), and that obtained with the use of hydrocortisone, a compound known to be active in inhibiting the release of TNF alpha. […] Therefore, the studies performed pointed out that MSM can decrease both the release of TNF alpha (this cytokine is expressed by keratinocytes in an inflammatory process of the skin) and the overall intensity of erythema even when TNF alpha is over-expressed by ultraviolet radiations. […] Moreover, it should be noted that TNF alpha can activate TRPV receptors and, therefore, a decrease in the production thereof can prevent it from exerting an agonist effect on the receptors themselves.

Row | Structure (SMILES) | percentage decrease of TNF alpha release
1 | CS(C)(=O)=O [MSM, methyl sulfonyl methane] | 12.33%
2 | C[C@]12CCC(=O)C=C1CC[C@@H]1[C@@H]2[C@@H](O)C[C@@]2(C)[C@H]1CC[C@]2(O)C(=O)CO [hydrocortisone] | 5.25%
